Data on one compound can be found in US5906981A, “Halopropargyl inclusion complexes” (Troy Corporation, priority 1996, dated 1999).

Data set [1] can be described thus: Thermal decomposition point. It is filed as physicochemical. Particulars: pure IPBC or IPBC in the inclusion complex. The method, then:
The melting point of pure IPBC is 66-67° C. and its decomposition occurs at about 150-155° C., leading to formation of highly colored by-products. The decomposition point of IPBC in the inclusion complex of Examples 1 and 3 was determined to be about 222-225° C.

A short description of data set [2]: Dissolution in water: stirring in water for 1/2 hour, filtration, recovery of IPBC (Example 2). Type of data set: physicochemical. Particulars: 4 g IPBC in 96 g water, stirred 1/2 hour. The protocol:
Four grams of IPBC were added to 96 g of water and stirred for 1/2 hour. The resulting slurry was filtered off and the filter cake was dried and weighed. […] Approximately 27 g of the lyophilized inclusion complex prepared in Example 1 was added to 73 g water and the mixture was stirred for 1/2 hour. […] Use of the inclusion complex in this manner thus affords approximately 4% solution of IPBC in water, which is a solubility enhancement of approximately 250-300 times.

Structures are written as SMILES.

In the case of `CCCCNC(=O)OCC#CI` [IPBC, 3-iodo-2-propynyl butylcarbamate], the decomposition point in data set [1] is 150-155 °C. Further, the “IPBC recovered in the filter cake” value in data set [2] is given as “Approximately 98%”.
